Patent publication EP0063525A1, “Dibenzazepine tetracyclic derivatives, process for their preparation and pharmaceutical compositions containing them” (CENTRE NATIONAL DE LA RECHERCHE SCIENTIFIQUE (CNRS), priority 1981, dated 1982)
Where two headings read alike, the source gives them in different places.

How the values were obtained:
Souris [1] = assay: tetrabenazine hypothermia; type: in vivo
Method: (§1) Ce test permet de révéler également une activité antidépressive avec l'avantage d'une lecture plus rapide qu'avec la réserpine.
Les produits sont injectés 30 minutes avant l'administration de tétrabénazine.
Les températures sont relevées aux temps : 0, 30 minutes, 60 minutes, 90 minutes et 120 minutes.
(§2) Les souris sont réparties par lots de 5.
Les températures sont relevées avant l'injection de tétrabénazine, 30 minutes, 60 minutes, 90 minutes et 120 minutes après.
(§3) Le lot témoin comprend 20 souris.

Souris [2] = assay: tetrabenazine ptosis; type: in vivo; details: for Ptosis 30 minutes / Ptosis 60 minutes / Ptosis 90 minutes / Ptosis 120 minutes: score 0-4 per eye
Method: as §1, §2
Le ptosis est noté avant l'injection de tétrabénazine, 30 minutes, 60 minutes, 90 minutes et 120 minutes après.
On a adopté la notation suivante : • - 0 : pour un oeil ouvert, • - 1 : pour un oeil fermé au quart, • - 2 : pour un oeil fermé à moitié, • - 3 : pour un oeil fermé aux trois-quarts, • - 4 : pour un oeil fermé complètement.
as §3

Souris [3] = assay: antireserpine activity: reserpine hypothermia; type: in vivo; details: réserpine 5 mg/kg i.p. 17 h before
Method in brief: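 Mice in groups of 4 given reserpine 5 mg/kg i.p.; 17 hours later rectal temperature taken by thermocouple and test substance or solvent given i.p. Temperature measured hourly for 4 hours. Reported as mean temperature changes at 1, 2, 3 and 4 hours, their 4-hour sum, and percent rise versus solvent controls.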

souris femelles = assay: acute toxicity in the mouse, intraperitoneal; type: in vivo; details: voie intrapéritonéale, dead mice of the group
Text: (§4) Les produits ont été administrés par voie intrapéritonéale à des souris femelles dont le poids variait de 18 à 30 g.
(§5) Les animaux injectés ont été maintenus dans une salle thermostatée, nourris et abreuvés à volonté.
(§6) La mortalité a été relevée à 1 heure, 4 heures, 24 heures et 48 heures.

[4] = acute toxicity in the mouse, intraperitoneal; type: in vivo, Souris; details: mouse, in vivo, ip, voie intrapéritonéale; for LD50 at 48 h: souris femelles, read-out: DL 50; for mortality at 48 h: read-out: Mortalité %
Text: as §4, §5, §6

chiens anesthésiés = assay: cardiovascular toxicity in the anaesthetised dog, slow perfusion; type: in vivo, Chien; details: chiens anesthésiés, perfusion lente
Method: L'étude du composé 2 a été effectuée sur 7 chiens anesthésiés à des doses allant de 4 à 20 mg/kg en perfusion lente.

[5] = ip, 2 h, hypothermie, product i.p. 50 mg/kg 30 min before tétrabénazine 32 mg/kg i.v., read-out: % de protection
[6] = product i.p. 50 mg/kg 30 min before tétrabénazine 32 mg/kg i.v.
[7] = ip, 2 h, ptosis, product i.p. 50 mg/kg 30 min before tétrabénazine 32 mg/kg i.v., read-out: % de protection
[8] = ip, 4 h, product i.p. 50 mg/kg, read-out: % d'augmentation par rapport aux témoins
[9] = product i.p. 25 mg/kg 30 min before tétrabénazine 32 mg/kg i.v.

| Structure (SMILES) | inhibition in vivo at 50 mg/kg (Souris [1]; [5]) [%] | Température après tétrabénazine 30 minutes (Souris [1]; [6]) | Température après tétrabénazine 60 minutes (Souris [1]; [6]) | Température après tétrabénazine 90 minutes (Souris [1]; [6]) | Température après tétrabénazine 120 minutes (Souris [1]; [6]) | Température après tétrabénazine Total (Souris [1]; [6]) | inhibition in vivo at 50 mg/kg (Souris [2]; [7]) [%] | Ptosis Total (Souris [2]; [6]) | Ptosis 30 minutes (Souris [2]; [6]) | Ptosis 60 minutes (Souris [2]; [6]) | Ptosis 90 minutes (Souris [2]; [6]) | Ptosis 120 minutes (Souris [2]; [6]) | change in vivo at 50 mg/kg (Souris [3]; [8]) [%] | Mortalité en 1 heure (souris femelles; 50 mg/kg) | Mortalité en 48 h. (souris femelles; 50 mg/kg) | Mortalité en 1 heure (souris femelles; 100 mg/kg) | Mortalité en 48 h. (souris femelles; 100 mg/kg) | LD50 at 48 h [4] [mg/kg] | mortality at 48 h ([4]; 50 mg/kg) [%] | mortality at 48 h ([4]; 100 mg/kg) [%] | other results |
| --- | --- | --- | --- | --- | --- | --- | --- | --- | --- | --- | --- | --- | --- | --- | --- | --- | --- | --- | --- | --- | --- |
| CN(C)CCCN1c2ccccc2-c2onc(-c3ccccc3)c2-c2ccccc21 [compound 18] | 8 | -3,1 | -1,8 | -1,9 | -1,1 | -7,9 | 24 | 23 | 3,6 | 5,8 | 6,4 | 7,2 | 25 | 0 | 0 | 0 | 0 | 225 | 0 | 0 | change in vivo at 150 mg/kg (Souris [3]; ip, 4 h, product i.p. 150 mg/kg, read-out: % d'augmentation par rapport aux témoins): 175%; Mortalité en 1 heure (souris femelles; 150 mg/kg): 0; Mortalité en 48 h. (souris femelles; 150 mg/kg): 0; Mortalité en 1 heure (souris femelles; 200 mg/kg): 5; Mortalité en 48 h. (souris femelles; 200 mg/kg): 5; Mortalité en 1 heure (souris femelles; 250 mg/kg): 4; Mortalité en 48 h. (souris femelles; 250 mg/kg): 5; mortality at 48 h ([4]; 150 mg/kg): 0%; mortality at 48 h ([4]; 200 mg/kg): 100%; mortality at 48 h ([4]; 250 mg/kg): 100% |
| CN(C)CCN1c2ccccc2C=Cc2ccccc21 [compound 20, (β-diméthylaminoéthyl)-5 dibenzo [b,f] 5H azépine, reference compound] | 46 | -3,1 | -0,2 | -0,3 | -1 | -4,6 | 60 | 12,2 | 2,2 | 3,4 | 3,2 | 3,6 | 440 | 0 | 0 | 3 | 3 | 75 | 0 | 60 | Augmentation de température en 4 h (Souris [3]; product i.p. 50 mg/kg): +10,8; variation de température T= 2h (Souris [3]; product i.p. 50 mg/kg): +2,7; variation de température T=3h (Souris [3]; product i.p. 50 mg/kg): +2; variation de température T=4h (Souris [3]; product i.p. 50 mg/kg): +1; Mortalité en 1 heure (souris femelles; 200 mg/kg): 5; Mortalité en 48 h. (souris femelles; 200 mg/kg): 5; mortality at 48 h ([4]; 200 mg/kg): 100% |
| CC(CN(C)C)CN1c2ccccc2C=Cc2ccccc21 (stereo not drawn) [compound 22, (méthyl-2 diméthylamino-3 propyl)-5 dibenzo [b,f] 5H azépine, reference compound] |  |  |  |  |  |  |  |  |  |  |  |  |  | 0 | 1 | 4 | 5 | 75 | 20 | 100 | inhibition in vivo at 25 mg/kg (Souris [1]; ip, 2 h, hypothermie, product i.p. 25 mg/kg 30 min before tétrabénazine 32 mg/kg i.v., read-out: % de protection): 50%; Température après tétrabénazine 30 minutes (Souris [1]; [9]): -3,5; Température après tétrabénazine 60 minutes (Souris [1]; [9]): -0,1; Température après tétrabénazine 90 minutes (Souris [1]; [9]): -0,6; Température après tétrabénazine 120 minutes (Souris [1]; [9]): -0,1; Température après tétrabénazine Total (Souris [1]; [9]): -4,3; inhibition in vivo at 25 mg/kg (Souris [2]; ip, 2 h, ptosis, product i.p. 25 mg/kg 30 min before tétrabénazine 32 mg/kg i.v., read-out: % de protection): 11%; Ptosis Total (Souris [2]; [9]): 26,8; Ptosis 30 minutes (Souris [2]; [9]): 5,6; Ptosis 60 minutes (Souris [2]; [9]): 6,8; Ptosis 90 minutes (Souris [2]; [9]): 6,8; Ptosis 120 minutes (Souris [2]; [9]): 7,6; change in vivo at 25 mg/kg (Souris [3]; ip, 4 h, product i.p. 25 mg/kg, read-out: % d'augmentation par rapport aux témoins): 85%; variation de température T= 2h (Souris [3]; product i.p. 25 mg/kg): +0,5; variation de température T=3h (Souris [3]; product i.p. 25 mg/kg): +1; variation de température T=4h (Souris [3]; product i.p. 25 mg/kg): +0,4; Mortalité en 1 heure (souris femelles; 25 mg/kg): 0; Mortalité en 48 heures (souris femelles; 25 mg/kg): 0; mortality at 48 h ([4]; 25 mg/kg): 0% |
| CN(C)CCCN1c2ccccc2CCc2ccccc21 [imipramine, reference compound] |  |  |  |  |  |  |  |  |  |  |  |  |  |  |  |  |  |  |  |  | retour vers les valeurs de départ des paramètres enregistrés, dès l'arrêt de l'injection (chiens anesthésiés): n'a pas été constatée |
